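Grown in 96-well plates, cells were treated for 48 hours with each compound at five concentrations. Insufficient inhibition: endpoint recorded as highest concentration tested. Abbreviation: GI50, concentration required for 50% inhibition of growth.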 Active and inactive are the calls of the source. Cut-off read from the data, not from the text of the source: active = GI50 up to about 1.1 µM and inactive = higher.
Experiments:
Test in all cases: inhibition of tumour cell growth, NCI panel, 48 h
SF-539 = tested on: SF-539
NCI-H23 = tested on: NCI-H23
HCT-116 = tested on: HCT-116
MCF7 = tested on: MCF7
SNB-75 = tested on: SNB-75
A549 = tested on: A549
CAKI-1 = tested on: CAKI-1
KM12 = tested on: KM12
U-251 = tested on: U-251
MDA-MB-231 = tested on: MDA-MB-231
T47D = tested on: T47D
SN12C = tested on: SN12C
NCI/ADR-RES = tested on: NCI/ADR-RES
HOP-92 = tested on: HOP-92
NCI-H522 = tested on: NCI-H522
TK-10 = tested on: TK-10
RPMI-8226 = tested on: RPMI-8226
SK-MEL-2 = tested on: SK-MEL-2
PC-3 = tested on: PC-3
SF-295 = tested on: SF-295
OVCAR-3 = tested on: OVCAR-3
UACC-257 = tested on: UACC-257
A498 = tested on: A498
OVCAR-5 = tested on: OVCAR-5
Hs-578T = tested on: Hs-578T
RXF 393 = tested on: RXF 393
ACHN = tested on: ACHN
SK-MEL-28 = tested on: SK-MEL-28
HOP-62 = tested on: HOP-62
Malme-3M = tested on: Malme-3M
SK-OV-3 = tested on: SK-OV-3
SF-268 = tested on: SF-268
UO-31 = tested on: UO-31
LOX IMVI = tested on: LOX IMVI
DU-145 = tested on: DU-145
786-0 = tested on: 786-0
K562 = tested on: K562
HT-29 = tested on: HT-29
IGROV-1 = tested on: IGROV-1
CCRF-CEM = tested on: CCRF-CEM
M14 = tested on: M14
NCI-H460 = tested on: NCI-H460
SNB-19 = tested on: SNB-19
SW-620 = tested on: SW-620
OVCAR-8 = tested on: OVCAR-8
MDA-N = tested on: MDA-N
SK-MEL-5 = tested on: SK-MEL-5
HL-60 = tested on: HL-60
HCT-15 = tested on: HCT-15
NCI-H226 = tested on: NCI-H226
OVCAR-4 = tested on: OVCAR-4
COLO 205 = tested on: COLO 205
EKVX = tested on: EKVX
MOLT-4 = tested on: MOLT-4
HCC 2998 = tested on: HCC 2998
MDA-MB-435 = tested on: MDA-MB-435
UACC-62 = tested on: UACC-62
SR = tested on: SR

Structure (SMILES): O=c1ccn(-c2ccccn2)c(=O)n1-c1ccccn1
- GI50 (SF-539): > 100 µM (inactive)
- GI50 (NCI-H23): > 100 µM (inactive)
- GI50 (HCT-116): > 100 µM (inactive)
- GI50 (MCF7): > 100 µM (inactive)
- GI50 (SNB-75): > 100 µM (inactive)
- GI50 (A549): > 100 µM (inactive)
- GI50 (CAKI-1): > 100 µM (inactive)
- GI50 (KM12): > 100 µM (inactive)
- GI50 (U-251): > 100 µM (inactive)
- GI50 (MDA-MB-231): > 100 µM (inactive)
- GI50 (T47D): > 100 µM (inactive)
- GI50 (SN12C): > 100 µM (inactive)
- GI50 (NCI/ADR-RES): > 100 µM (inactive)
- GI50 (HOP-92): > 100 µM (inactive)
- GI50 (NCI-H522): > 100 µM (inactive)
- GI50 (TK-10): > 100 µM (inactive)
- GI50 (RPMI-8226): > 100 µM (inactive)
- GI50 (SK-MEL-2): > 100 µM (inactive)
- GI50 (PC-3): > 100 µM (inactive)
- GI50 (SF-295): > 100 µM (inactive)
- GI50 (OVCAR-3): > 100 µM (inactive)
- GI50 (UACC-257): > 100 µM (inactive)
- GI50 (A498): > 100 µM (inactive)
- GI50 (OVCAR-5): > 100 µM (inactive)
- GI50 (Hs-578T): > 100 µM (inactive)
- GI50 (RXF 393): > 100 µM (inactive)
- GI50 (ACHN): > 100 µM (inactive)
- GI50 (SK-MEL-28): > 100 µM (inactive)
- GI50 (HOP-62): > 100 µM (inactive)
- GI50 (Malme-3M): > 100 µM (inactive)
- GI50 (SK-OV-3): > 100 µM (inactive)
- GI50 (SF-268): > 100 µM (inactive)
- GI50 (UO-31): > 100 µM (inactive)
- GI50 (LOX IMVI): > 100 µM (inactive)
- GI50 (DU-145): > 100 µM (inactive)
- GI50 (786-0): > 100 µM (inactive)
- GI50 (K562): > 100 µM (inactive)
- GI50 (HT-29): > 100 µM (inactive)
- GI50 (IGROV-1): > 100 µM (inactive)
- GI50 (CCRF-CEM): > 100 µM (inactive)
- GI50 (M14): > 100 µM (inactive)
- GI50 (NCI-H460): > 100 µM (inactive)
- GI50 (SNB-19): > 100 µM (inactive)
- GI50 (SW-620): > 100 µM (inactive)
- GI50 (OVCAR-8): > 100 µM (inactive)
- GI50 (MDA-N): > 100 µM (inactive)
- GI50 (SK-MEL-5): > 100 µM (inactive)
- GI50 (HL-60): > 100 µM (inactive)
- GI50 (HCT-15): > 100 µM
- GI50 (NCI-H226): > 100 µM (inactive)
- GI50 (OVCAR-4): > 100 µM (inactive)
- GI50 (COLO 205): > 100 µM (inactive)
- GI50 (EKVX): > 100 µM (inactive)
- GI50 (MOLT-4): > 100 µM (inactive)
- GI50 (HCC 2998): > 100 µM (inactive)
- GI50 (MDA-MB-435): > 100 µM (inactive)

Structure (SMILES): COC(=O)CCc1ccc2c(c1)CC1(Cc3ccccc3C1)C2
- GI50 (SF-539): > 100 µM (inactive)
- GI50 (NCI-H23): > 100 µM (inactive)
- GI50 (HCT-116): 95.1 µM (inactive)
- GI50 (MCF7): > 100 µM (inactive)
- GI50 (SNB-75): < 0.01 µM (active)
- GI50 (A549): 98.4 µM (inactive)
- GI50 (KM12): > 100 µM (inactive)
- GI50 (U-251): > 100 µM (inactive)
- GI50 (MDA-MB-231): > 100 µM (inactive)
- GI50 (T47D): > 100 µM (inactive)
- GI50 (SN12C): > 100 µM (inactive)
- GI50 (NCI/ADR-RES): > 100 µM (inactive)
- GI50 (HOP-92): 97.5 µM (inactive)
- GI50 (NCI-H522): 74 µM (inactive)
- GI50 (TK-10): > 100 µM (inactive)
- GI50 (RPMI-8226): > 100 µM (inactive)
- GI50 (SK-MEL-2): 14.3 µM (inactive)
- GI50 (PC-3): > 100 µM (inactive)
- GI50 (SF-295): > 100 µM (inactive)
- GI50 (OVCAR-3): > 100 µM (inactive)
- GI50 (UACC-257): > 100 µM (inactive)
- GI50 (A498): > 100 µM (inactive)
- GI50 (OVCAR-5): > 100 µM (inactive)
- GI50 (Hs-578T): > 100 µM (inactive)
- GI50 (RXF 393): > 100 µM (inactive)
- GI50 (ACHN): > 100 µM (inactive)
- GI50 (HOP-62): > 100 µM (inactive)
- GI50 (UACC-62): 57.3 µM (inactive)
- GI50 (Malme-3M): > 100 µM (inactive)
- GI50 (SK-OV-3): > 100 µM (inactive)
- GI50 (UO-31): > 100 µM (inactive)
- GI50 (LOX IMVI): > 100 µM (inactive)
- GI50 (786-0): > 100 µM (inactive)
- GI50 (K562): > 100 µM (inactive)
- GI50 (HT-29): > 100 µM (inactive)
- GI50 (IGROV-1): > 100 µM (inactive)
- GI50 (CCRF-CEM): 34.6 µM (inactive)
- GI50 (M14): > 100 µM (inactive)
- GI50 (OVCAR-8): > 100 µM (inactive)
- GI50 (MDA-N): > 100 µM (inactive)
- GI50 (SK-MEL-5): 33.6 µM (inactive)
- GI50 (HL-60): 51.9 µM (inactive)
- GI50 (HCT-15): > 100 µM
- GI50 (NCI-H226): > 100 µM (inactive)
- GI50 (OVCAR-4): > 100 µM (inactive)
- GI50 (COLO 205): > 100 µM (inactive)
- GI50 (EKVX): > 100 µM (inactive)
- GI50 (MOLT-4): 77.1 µM (inactive)
- GI50 (HCC 2998): > 100 µM (inactive)
- GI50 (MDA-MB-435): > 100 µM (inactive)

Structure (SMILES): Cc1coc2c1C[C@@]1(C)[C@H](CCC[C@@H]1C)[C@H]2O
- GI50 (SF-539): 25.1 µM (inactive)
- GI50 (NCI-H23): 36.8 µM (inactive)
- GI50 (HCT-116): 29.6 µM (inactive)
- GI50 (MCF7): 52.7 µM (inactive)
- GI50 (CAKI-1): 44.5 µM (inactive)
- GI50 (KM12): > 100 µM (inactive)
- GI50 (U-251): 42.4 µM (inactive)
- GI50 (MDA-MB-231): 20.7 µM (inactive)
- GI50 (T47D): 19.9 µM (inactive)
- GI50 (SN12C): 15.6 µM (inactive)
- GI50 (NCI/ADR-RES): 24.3 µM (inactive)
- GI50 (HOP-92): 25.9 µM (inactive)
- GI50 (NCI-H522): 22.4 µM (inactive)
- GI50 (TK-10): 54 µM (inactive)
- GI50 (RPMI-8226): 18.1 µM (inactive)
- GI50 (PC-3): 19.1 µM (inactive)
- GI50 (SF-295): 30.9 µM (inactive)
- GI50 (OVCAR-3): 22.6 µM (inactive)
- GI50 (UACC-257): 31.8 µM (inactive)
- GI50 (OVCAR-5): 37.2 µM (inactive)
- GI50 (Hs-578T): 71.1 µM (inactive)
- GI50 (RXF 393): 20.8 µM (inactive)
- GI50 (ACHN): 24.7 µM (inactive)
- GI50 (SK-MEL-28): 29.5 µM (inactive)
- GI50 (HOP-62): 29.4 µM (inactive)
- GI50 (UACC-62): 69.5 µM (inactive)
- GI50 (Malme-3M): 18.8 µM (inactive)
- GI50 (SK-OV-3): > 100 µM (inactive)
- GI50 (SF-268): 16.9 µM (inactive)
- GI50 (LOX IMVI): 56.4 µM (inactive)
- GI50 (DU-145): 11.9 µM (inactive)
- GI50 (K562): 28.4 µM (inactive)
- GI50 (SR): 14.6 µM (inactive)
- GI50 (HT-29): 33.3 µM (inactive)
- GI50 (IGROV-1): 19.8 µM (inactive)
- GI50 (CCRF-CEM): 28.4 µM (inactive)
- GI50 (M14): 60.4 µM (inactive)
- GI50 (NCI-H460): > 100 µM (inactive)
- GI50 (SNB-19): > 100 µM (inactive)
- GI50 (SW-620): 37.7 µM (inactive)
- GI50 (OVCAR-8): 35.4 µM (inactive)
- GI50 (MDA-N): 49.9 µM (inactive)
- GI50 (SK-MEL-5): 15.1 µM (inactive)
- GI50 (HL-60): 16.4 µM (inactive)
- GI50 (HCT-15): 36.2 µM
- GI50 (NCI-H226): 15.5 µM (inactive)
- GI50 (OVCAR-4): 28.1 µM (inactive)
- GI50 (COLO 205): 41.6 µM (inactive)
- GI50 (EKVX): 58.7 µM (inactive)
- GI50 (MOLT-4): 18 µM (inactive)
- GI50 (HCC 2998): 11.4 µM (inactive)
- GI50 (MDA-MB-435): 30.1 µM (inactive)
